Source: patent US20240309060A1, “POLYPEPTIDE BAX/NPM INHIBITORS” (TRUSTEES OF BOSTON UNIVERSITY, priority 2023, published 2024)
Square brackets hold non-standard residues; d marks the D form. βAla = NCCC(=O)O

How the values were obtained:
[1] = system: primary murine proximal tubule epithelial cells (PTEC); assay: MTT cell survival assay of kidney cells after ischemic stress in vitro induced by metabolic inhibitors; assay type: cell-based; settings: for Cell survival data (ranking of peptides): normalized to negative control GFP fragment, FIG. 14; for Cytoprotective effects during ischemic stress in vitro: peptides 100 nM, metabolic inhibitors 60 min, recovery 6 hr, vs GFP negative control, FIG. 13
Protocol: FIG. 2 depicts an NPMB1 Alanine Scan. Relative kidney cell survival rate after 70 min ischemic stress in vitro induced by metabolic inhibitors in the presence of NPMB1 (control) vs. 19 different NPMBx polypeptides with single alanine substitutions (2 additional NPMB1 alanine residues were not substituted). Residue numbers (x axis) reflect Bax sequence that binds human NPM1; Survival data are normalized to NPMB1; post-ischemic kidney cell survival is shown in tertiles: (left-most group: 5-40% survival; middle-group: 55-70% and third group: 80-95%); n=3 separate experiments.
Relative kidney cell survival rate after 70 min ischemic stress in vitro induced by transient exposure to metabolic inhibitors in the presence of NPMB polypeptides (Agents 2, 5, 7, 14 that reflect alanine scan polypeptides A173, A187, A179, A176) vs. a non—specific polypeptide (GFP fragment). Survival data normalized to baseline (no stress); *P<0.01vs. baseline; t P<0.05 vs. stress; data represent 3 separate experiments; error bars represent mean+SD.
FIGS. 13A-13B depict the cytoprotective effects of select therapeutic peptides during ischemic stress in vitro. Primary murine proximal tubule epithelial cells (PTEC) were transiently exposed to metabolic inhibitors for 60 min and allowed to recover for 6 hr. to simulate ischemia in vivo; MTT assay estimated cell survival. “Control” (open bars); is a GFP fragment of similar size to the therapeutic peptides was used a negative control; NPMB1 (prototype) serves as a positive control. […] All peptides contained the nuclear localizing sequence (NLS) to enhance peptide delivery to the kidney, a beta linker and both carboxy-and amino terminal modifications to reduce susceptibility to protease digestion; data are mean+standard error; n=3 separate experiments. Figure discloses SEQ ID NOS 139, 134-135, 128, 127, and 138, respectively, in order of appearance.
Structure activity relationships of NPMB1 derivatives were determined through alanine scanning In these studies, 19 polypeptides were produced using methods shown in FIGS. 8-11 and their effect of kidney cell survival after ischemic stress was characterized using the MTT cell survival assay. Based on determination of relative kidney cell survival rate, polypeptides were grouped according to activity as shown in FIG. 2 (orange: 5-40% survival; blue 55-70% survival, or green 80-95% survival).

human NPM1 = human NPM1 (Homo sapiens, UniProt P06748); assay: Surface plasmon resonance (SPR) binding of peptides to human NPM1; settings: human NPM1, FIG. 14
Chain of human NPM1 (P06748 whole entry, the tested form may be a part): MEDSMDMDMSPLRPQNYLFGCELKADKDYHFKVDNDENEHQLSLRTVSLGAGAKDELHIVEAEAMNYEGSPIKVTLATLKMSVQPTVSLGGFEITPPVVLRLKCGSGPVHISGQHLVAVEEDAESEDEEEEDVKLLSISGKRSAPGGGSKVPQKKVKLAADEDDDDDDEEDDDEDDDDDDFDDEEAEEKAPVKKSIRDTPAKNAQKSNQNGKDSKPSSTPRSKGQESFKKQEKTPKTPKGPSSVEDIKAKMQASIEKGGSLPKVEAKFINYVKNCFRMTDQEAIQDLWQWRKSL
From the text: FIG. 14 depicts a table of the association rate, dissociation rate and the calculated equilibrium dissociation constant for 10 representative therapeutic peptides as measured by Surface Plasmon Resonance (SPR). Mean rates are derived from at least three different peptide concentrations at levels below saturation with human NPM1. Cell survival data are normalized to the negative control (a GFP fragment of similar size to the therapeutic peptides) and represent the mean of at least 3 separate experiments.
FIG. 15 depicts an on-off rate map. A graph of the off-rate (x-axis) and on-rate (y-axis) of 10 representative peptides from different sets of modified peptides. Diagonal dash-lines represent the equilibrium dissociation constant (KD) estimates the NPM1 binding affinity for each peptide based on the distance to the lines.
The 3D helical wheel projection scan predicted that 5 of 6 peptide residues (except for L185) with intermediate effects on post-ischemic cell survival cluster in a single surface domain (FIGS. 6 and 7). These surface residues are likely regulating the binding affinity Kd) between the therapeutic peptide and NPM1, the human target protein. Since binding affinity (Kd) between the peptide drug and NPMB1 partly predicts its efficacy, a high throughput, quantitative surface plasmon resonance (SPR) assay was developed.
SPR was measured for 10 novel polypeptides with select single or double mutations. Both the measured peptide “on” and “off” rates for binding human NPM1 markedly differed (FIG. 15). […] For most modified peptides, greater protection against ischemic stress positively correlated with a low Kd. […] Overall, SPR data combined with cell survival data adequately informs the selection of therapeutic peptides based on the quantifiable effects of R group modifications on these parameters. The combination of SPR binding affinity and cell survival data in vitro effectively rank orders therapeutic peptides for in vivo testing in animals.

[2] = system: primary murine proximal tubule epithelial cells (PTEC); settings: J Am Soc Nephrol 30: 50-62, 2019; cited from earlier work
[3] = system: in vivo mouse model of ischemic AKI; settings: J Am Soc Nephrol 30: 50-62, 2019; cited from earlier work
[4] = biological target: human nucleophosmin (NPM1) (Homo sapiens, UniProt P06748); settings: previously discovered by the applicant's team; cited from earlier work
Chain of human nucleophosmin (NPM1) (Homo sapiens, UniProt P06748) (P06748 whole entry): as the sequence (P06748 whole entry, the tested form may be a part) above

[5] = system: human nucleophosmin (NPM1); settings: in vivo (Wang 2019); cited from earlier work

Substance | Cell survival data (ranking of peptides) [1] | Cytoprotective effects during ischemic stress in vitro [1] | Kd / NPM1 binding affinity in words (human NPM1) | Kidney cell death in a cell-based assay [2] | Kidney cell death in an in vivo mouse model of ischemic AKI [3] | Binding to human nucleophosmin (NPM1) [4] | NPM/Bax protein interaction [5] | Degree of cytoprotection during ischemic stress ([1]; alanine scan and pro-helical mutations)
Ac-PKKKRKV-Bala-TATIAVAGVLTASLTIWKKMG-OMe [NPMB1-X-012] | most effective | most robust protection | relatively low Kd values |  |  |  |  | 
Ac-PKKKRKV-Bala-TATLFVAGVLTASLTIWKKMG-OMe [NPMB1-X-013] | most effective | most robust protection | relatively low Kd values |  |  |  |  | 
Ac-PKKKRKV-Bala-TVTIFVAGVLTASLTIWKKMG-OH [NPMB1, prototype peptide, positive control] |  |  |  | inhibits kidney cell death | inhibits kidney cell death | binds | competitively inhibits | 
Ac-PKKKRKV-Bala-TVTLFVAGVLTASLTIWKKMG-OMe [NPMB1-V-001] | most effective |  | relatively low NPM1 binding affinity |  |  |  |  | highly effective
Ac-RREEERREEERREEEK-Bala-TVTIFVAGVLTASLTIWKKMG-OH (Ac-RREEERREEERREEEK[βAla]TVTIFVAGVLTASLTIWKKMG-OH; SMILES CC[C@H](C)[C@H](NC(=O)[C@@H](NC(=O)[C@H](CC(C)C)NC(=O)[C@H](CO)NC(=O)[C@H](C)NC(=O)[C@@H](NC(=O)[C@H](CC(C)C)NC(=O)[C@@H](NC(=O)CNC(=O)[C@H](C)NC(=O)[C@@H](NC(=O)[C@H](Cc1ccccc1)NC(=O)[C@@H](NC(=O)[C@@H](NC(=O)[C@@H](NC(=O)[C@@H](NC(=O)CCNC(=O)[C@H](CCCCN)NC(=O)[C@H](CCC(=O)O)NC(=O)[C@H](CCC(=O)O)NC(=O)[C@H](CCC(=O)O)NC(=O)[C@H](CCCNC(=N)N)NC(=O)[C@H](CCCNC(=N)N)NC(=O)[C@H](CCC(=O)O)NC(=O)[C@H](CCC(=O)O)NC(=O)[C@H](CCC(=O)O)NC(=O)[C@H](CCCNC(=N)N)NC(=O)[C@H](CCCNC(=N)N)NC(=O)[C@H](CCC(=O)O)NC(=O)[C@H](CCC(=O)O)NC(=O)[C@H](CCC(=O)O)NC(=O)[C@H](CCCNC(=N)N)NC(=O)[C@H](CCCNC(=N)N)NC(C)=O)[C@@H](C)O)C(C)C)[C@@H](C)O)[C@@H](C)CC)C(C)C)C(C)C)[C@@H](C)O)[C@@H](C)O)C(=O)N[C@@H](Cc1c[nH]c2ccccc12)C(=O)N[C@@H](CCCCN)C(=O)N[C@@H](CCCCN)C(=O)N[C@@H](CCSC)C(=O)NCC(=O)O) [NPMB1-I-011] |  |  | relatively low Kd |  |  |  |  | 
